Columns and labels:
LAT1 [1] = biological target: T1, LAT1 (Homo sapiens, UniProt Q01650, F252W); assay: inhibition of L-[…]Leu uptake in Xenopus oocytes; format: cell-based
T1 construct: gene SLC7A5; F252W LAT1 co-expressed with CD98hc in Xenopus oocytes; with CD98hc (4F2hc; SLC3A2)

LAT1 [2] = biological target: T2, LAT1 (Homo sapiens, UniProt Q01650); assay: cryo-EM structure in nanodiscs ([…] Å); IC50 from L-[…]Leu uptake in Xenopus oocytes; format: cell-based
T2 construct: gene SLC7A5; LAT1–CD98hc in lipid nanodiscs with Fab170; with CD98hc (4F2hc; SLC3A2)

LAT1 [3] = biological target: T3, LAT1 (Homo sapiens, UniProt Q01650, F400V); assay: inhibition of L-[…]Leu uptake in Xenopus oocytes; format: cell-based
T3 construct: gene SLC7A5; F400V LAT1 expressed in Xenopus oocytes; with CD98hc (4F2hc; SLC3A2)

LAT1 [4] = biological target: T2, LAT1; assay: cryo-EM structure ([…] Å, occluded); cis inhibition and counterflow assays in oocytes
LAT1 [5] = biological target: T2, LAT1; assay: cryo-EM structure (outward-open, nanodisc)

T2 sequence (Q01650 whole entry): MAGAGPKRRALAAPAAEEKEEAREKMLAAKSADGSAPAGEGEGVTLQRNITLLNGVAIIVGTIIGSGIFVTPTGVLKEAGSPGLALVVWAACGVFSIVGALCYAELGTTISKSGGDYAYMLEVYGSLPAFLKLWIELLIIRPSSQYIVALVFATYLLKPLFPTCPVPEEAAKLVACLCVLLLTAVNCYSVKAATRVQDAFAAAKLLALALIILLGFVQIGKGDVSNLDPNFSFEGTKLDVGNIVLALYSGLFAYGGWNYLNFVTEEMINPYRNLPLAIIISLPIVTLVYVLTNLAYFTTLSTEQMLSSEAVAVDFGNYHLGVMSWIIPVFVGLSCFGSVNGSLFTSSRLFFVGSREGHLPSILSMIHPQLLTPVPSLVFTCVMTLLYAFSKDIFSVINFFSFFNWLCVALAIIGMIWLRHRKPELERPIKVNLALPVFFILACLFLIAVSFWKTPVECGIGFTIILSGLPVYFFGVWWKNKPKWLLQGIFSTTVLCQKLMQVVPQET
T2 sequence (P08195 103-630 partner): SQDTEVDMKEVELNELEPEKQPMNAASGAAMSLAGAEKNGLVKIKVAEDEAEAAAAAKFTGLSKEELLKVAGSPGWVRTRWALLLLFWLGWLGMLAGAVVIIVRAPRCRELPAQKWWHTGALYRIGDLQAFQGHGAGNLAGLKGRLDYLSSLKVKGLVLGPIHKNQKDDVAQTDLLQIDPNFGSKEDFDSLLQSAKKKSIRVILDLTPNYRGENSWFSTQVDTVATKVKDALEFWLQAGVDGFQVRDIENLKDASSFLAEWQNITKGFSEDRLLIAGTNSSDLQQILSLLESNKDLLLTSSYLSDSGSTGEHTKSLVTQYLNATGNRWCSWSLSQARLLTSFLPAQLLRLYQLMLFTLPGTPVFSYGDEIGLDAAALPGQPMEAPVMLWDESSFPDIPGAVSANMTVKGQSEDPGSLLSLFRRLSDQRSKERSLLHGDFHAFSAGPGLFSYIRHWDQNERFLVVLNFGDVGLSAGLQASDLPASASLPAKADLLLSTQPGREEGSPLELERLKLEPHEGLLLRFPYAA
T3 sequence (Q01650 whole entry F400V): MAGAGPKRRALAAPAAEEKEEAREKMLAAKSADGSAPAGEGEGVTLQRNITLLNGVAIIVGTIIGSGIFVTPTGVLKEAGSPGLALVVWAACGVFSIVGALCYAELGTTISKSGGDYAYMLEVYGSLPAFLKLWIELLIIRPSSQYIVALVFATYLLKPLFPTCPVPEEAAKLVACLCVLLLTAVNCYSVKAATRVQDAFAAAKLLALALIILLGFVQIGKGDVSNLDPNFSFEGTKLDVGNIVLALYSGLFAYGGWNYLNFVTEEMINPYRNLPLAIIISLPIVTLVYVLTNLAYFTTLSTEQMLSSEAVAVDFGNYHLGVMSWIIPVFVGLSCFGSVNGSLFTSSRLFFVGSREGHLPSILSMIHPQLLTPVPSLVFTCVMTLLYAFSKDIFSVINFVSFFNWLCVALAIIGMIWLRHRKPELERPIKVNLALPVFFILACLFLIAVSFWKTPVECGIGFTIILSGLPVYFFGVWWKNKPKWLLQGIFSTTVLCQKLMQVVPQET
T3 sequence (P08195 103-630 partner): as the sequence (P08195 103-630 partner) above
T1 sequence (Q01650 whole entry F252W): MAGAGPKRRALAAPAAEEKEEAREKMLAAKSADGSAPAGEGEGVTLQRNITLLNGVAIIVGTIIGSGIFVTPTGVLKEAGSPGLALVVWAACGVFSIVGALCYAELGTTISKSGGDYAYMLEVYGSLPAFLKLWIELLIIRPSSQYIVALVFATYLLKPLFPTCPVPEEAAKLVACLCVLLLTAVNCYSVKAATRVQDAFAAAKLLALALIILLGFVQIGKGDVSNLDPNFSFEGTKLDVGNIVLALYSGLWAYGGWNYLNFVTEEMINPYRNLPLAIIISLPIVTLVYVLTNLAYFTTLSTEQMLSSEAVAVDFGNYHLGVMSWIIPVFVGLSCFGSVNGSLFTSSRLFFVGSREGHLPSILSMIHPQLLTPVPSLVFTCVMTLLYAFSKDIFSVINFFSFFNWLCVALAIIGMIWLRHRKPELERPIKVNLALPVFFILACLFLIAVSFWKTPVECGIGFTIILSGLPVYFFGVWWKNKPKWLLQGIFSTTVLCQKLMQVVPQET
T1 sequence (P08195 103-630 partner): as the sequence (P08195 103-630 partner) above

Nc1cc(COc2c(Cl)cc(C[C@H](N)C(=O)O)cc2Cl)c2oc(-c3ccccc3)nc2c1 [JPH203, (S)-2-amino-3-(4-((5-amino-2-phenylbenzo [d]oxazol-7-yl)methoxy)-3,5-dichlorophenyl) propanoic acid]
IC50 (LAT1 [1]): 36 nM
IC50 (LAT1 [2]): 542 nM
inhibition of L-[14C]Leu uptake in Xenopus oocytes (LAT1 [3]): the variant F400V retained its activity and was sensitive to JPH203

NC1(C(=O)O)CC2CCC1C2 (centres unmarked) [BCH, 2-aminobicyclo[2.2.1]heptane-2-carboxylic acid]
cryo-EM structure (3.7 Å, occluded); cis inhibition and counterflow assays in oo (LAT1 [4]): BCH is bound in the canonical substrate-binding pocket, with its carboxy and amino moieties recognized

N[C@@H](Cc1ccc(N(CCCl)CCCl)cc1)C(=O)O [melphalan]
cryo-EM structure (outward-open, nanodisc) (LAT1 [5]): bis-(2-chloroethyl)amino side group is placed in the space surrounded by TM3, TM6a and TM10

From paper PMC11828871, “Structural basis of anticancer drug recognition and amino acid transport by LAT1” (Nature Communications, 2025)
